US10806717B2, “Methods and compositions for improving cognitive function” (The Johns Hopkins University, priority 2013, dated 2020)

Legend:
[1] = test system: MAM-treated rats; conditions: rat, in vivo; cited from earlier work
[2] = test system: Memory-impaired aged rats; test: Water maze probe test after chronic brivaracetam; type: in vivo, rat; conditions: brivaracetam 2 mg/kg/day by osmotic mini-pump
Description: The radial arm maze experiments used acute administration of seletracetam (0-4 mg/kg), brivaracetam (0-4 mg/kg), or saline vehicle given by intraperitoneal injection (in a volume of 1 ml/kg) 30-40 min prior to test sessions. In the chronic treatment experiment, memory-impaired aged rats were implanted subcutaneously in the intrascapular region with osmotic mini-pumps (ALZET, Durect Corporation, Cupertino, Calif.) with brivaracetam (2 mg/kg/day) or saline vehicle starting two weeks prior to assessment in the water maze.
Rats were trained and tested in a novel water maze environment to assess the effect of drug treatment. The water maze used here was housed in a different building and was surrounded by curtains with a novel set of patterns relative to the maze used for initial assessment of cognitive status. The training protocol consisted of 6 trials per day for 2 days to locate a submerged escape platform. On each trial, a rat was released in the maze from one of four equally spaced starting positions around the perimeter of the pool. The starting position varied from trial to trial. […] The rat was then removed from the platform and placed in a holding cage for another 40 s before the next trial. Approximately 24 hr after the last training trial, a probe test in the absence of the escape platform was given to assess spatial memory.

[3] = test system: Memory-impaired aged rats; test: Radial arm maze task with 2-hr delay, acute brivaracetam or seletracetam; type: in vivo, rat; conditions: acute i.p. 0.0625-4 mg/kg, 30-40 min before test; repeated measures ANOVA: brivaracetam p=0.039, seletracetam p=0.009
[4] = test system: Memory-impaired aged rats; conditions: cited from earlier work
[5] = test system: aged-impaired (AI) rats; test: Radial Arm Maze task with one-hour delay, levetiracetam and/or valproate; type: in vivo, rat; conditions: valproate on its own
[6] = test system: MAM-treated rats; conditions: cited from earlier work

NC1=N[C@H](O)[C@H]2[C@H]3O[C@]4(O)O[C@@H]([C@@H](O)[C@@]2(N1)[C@@H]4O)[C@]3(O)CO [tetrodotoxin]
augmented amphetamine-induced locomotor behavior [1]: normalized
elevated DA neuron population activity [1]: completely reversed

CCC[C@@H]1CC(=O)N([C@@H](CC)C(N)=O)C1 [brivaracetam]
spatial bias for the target quadrant compared to the other quadrants ([2]; 14 days, n=3/group, t(2)=10.000, p=0.010): significant spatial bias
time in the target annulus compared to vehicle-treated rats ([2]; t(4)=3.109, p=0.036): significantly more time
time in the target quadrant compared to vehicle-treated rats ([2]; t(4)=3.881, p=0.018): significantly more time
number of errors in the retention phase after 2-hr delay [3]: significant effect as a function of dose

CC[C@@H](C(N)=O)N1C[C@H](C=C(F)F)CC1=O [seletracetam]
number of errors in the retention phase after 2-hr delay [3]: significant effect as a function of dose

CCCC(CCC)C(=O)O [valproate, 2-propylpentanoate]
treatment of cognitive impairment ([4]; 50 mg/kg/day, chronic subcutaneous administration): not effective
performance in a memory test ([4]; 100 mg/kg/day, chronic subcutaneous administration): significantly improved
blood total valproate level ([4]; rat, in vivo): 10 μg/ml plasma
effective in reducing the number of errors ([5]; 25 mg/kg or 50 mg/kg subcutaneous): not
effective in reducing the number of errors ([5]; 100 mg/kg subcutaneous): effective

C#Cc1ccc2c(c1)C(c1ccccc1F)=N[C@H](C)c1c(C(=O)OCC)ncn1-2 [SH-053-2′F—R—CH3]
number of spontaneously active DA neurons in the ventral tegmental area (VTA) ([6]; MAM rats, systemic or infused into ventral HPC, to levels of saline-treated rats): reduces
increased locomotor response to amphetamine ([6]; MAM-treated rats): reduced
cortical-evoked responses of HPC neurons ([6]; saline-treated and MAM-treated animals): diminished
